In brackets after ≈: the same amount, converted by molar mass.
What was measured:
Assay in all cases: microbe, parasite or virus in culture
P. aeruginosa PA01 = format: cell-based
Method in brief: (§1)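 Broth microdilution in cation-adjusted Mueller-Hinton broth, final inoculum 1 × 10⁵ CFU/mL, peptides 0.25 to 128 μg/mL in 0.02% TFA + 0.04% BSA. Duplicates incubated 20 h at 37 °C without agitation. MIC read visually per CLSI with image-analysis support.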

P. aeruginosa PA01 (Si) = format: cell-based; details: P. aeruginosa PA01 (Si), not typical ESKAPEE strain
Text: Supplement 41522_2025_837_MOESM13_ESM.xlsx, sheet "Table_S13_ESKAPEE-MIC" | column: Bacterial MIC (µg/mL)

P. aeruginosa MRSN 5519 = details: P. aeruginosa 5519
Method in brief: as §1

E. coli ATCC 35218 = details: E. coli 35218
Method in brief: as §1

K. pneumoniae ATCC 13883 = details: K. pneumoniae 13883
Method in brief: as §1

P. aeruginosa ATCC 27853 = details: P. aeruginosa 27853
Method in brief: as §1

S. aureus ATCC 25923 = details: S. aureus 25923
Method in brief: as §1

E. faecium ATCC 49224 = details: E. faecium 49224
Method in brief: as §1

S. aureus ATCC 43300 = details: S. aureus 43300
Method in brief: as §1

[1] = system: K. pneumoniae ATCC 700603; details: K. pneumoniae 700603
Method in brief: as §1

E. faecium ATCC 19434 = details: E. faecium 19434
Method in brief: as §1

A. baumannii ATCC 19606 = details: A. baumannii 19606
Method in brief: as §1

[2] = CAMHB, 1 × 10⁵ CFU/mL, 0.25 to 128 μg/mL, 37 °C 20 h, duplicate, read visually (CLSI)

`CC[C@H](C)[C@H](NC(=O)[C@H](CCCCN)NC(=O)[C@H](CCC(=O)O)NC(=O)[C@H](CCCCN)NC(=O)[C@H](CO)NC(=O)[C@H](CCCCN)NC(=O)[C@H](CCCNC(=N)N)NC(=O)[C@H](Cc1ccccc1)NC(=O)[C@H](Cc1ccccc1)NC(=O)[C@H](CC(=O)O)NC(=O)CNC(=O)[C@H](CC(C)C)NC(=O)[C@@H](N)CC(C)C)C(=O)NCC(=O)N[C@@H](CCCCN)C(=O)N[C@@H](CCC(=O)O)C(=O)N[C@@H](Cc1ccccc1)C(=O)N[C@@H](CCCCN)C(=O)N[C@@H](CCCNC(=N)N)C(=O)N[C@H](C(=O)N[C@H](C(=O)N[C@@H](CCC(N)=O)C(=O)N[C@@H](CCCNC(=N)N)C(=O)N[C@H](C(=O)N[C@@H](CCCCN)C(=O)N[C@@H](CC(=O)O)C(=O)N[C@@H](Cc1ccccc1)C(=O)N[C@@H](CC(C)C)C(=O)N[C@@H](CCCNC(=N)N)C(=O)N[C@@H](CC(N)=O)C(=O)N[C@@H](CC(C)C)C(=O)N[C@H](C(=O)N1CCC[C@H]1C(=O)N[C@@H](CCCNC(=N)N)C(=O)N[C@H](C(=O)N[C@@H](CCC(=O)O)C(=O)N[C@@H](CO)C(=O)O)[C@@H](C)O)C(C)C)[C@@H](C)CC)C(C)C)[C@@H](C)CC` [LL-37, reference compound] was tested, and the “Bacterial MIC” value (P. aeruginosa PA01; P. aeruginosa 15692 (PAO1), Week 2 (12/14/2023)) was 16 µg/mL, the MIC (P. aeruginosa PA01; P. aeruginosa PA01, CAMHB, 1 × 10⁵ CFU/mL, 0.25 to 128 μg/mL, 37 °C 20 h, duplicate, read visually (CLSI)) was 4 µg/mL (≈ 0.89 µM) and the “Bacterial MIC” value (P. aeruginosa PA01 (Si); Week 1 (12/6/2023)) was 4 µg/mL. For the same molecule, the “Bacterial MIC” value (P. aeruginosa PA01 (Si); Week 2 (12/14/2023)) was 4 to 8 µg/mL, the MIC (P. aeruginosa MRSN 5519; [2]) was 16 µg/mL (≈ 3.56 µM) and the “Bacterial MIC” value (P. aeruginosa MRSN 5519; Week 1 (12/6/2023)) was 16 µg/mL. For the same molecule, the “Bacterial MIC” value (P. aeruginosa MRSN 5519; Week 2 (12/14/2023)) was 16 µg/mL, the MIC (E. coli ATCC 35218; [2]) was 8 µg/mL (≈ 1.78 µM) and the “Bacterial MIC” value (E. coli ATCC 35218; Week 2 (12/14/2023)) was 8 µg/mL. The MIC (K. pneumoniae ATCC 13883; [2]) was 4 µg/mL (≈ 0.89 µM), the “Bacterial MIC” value (K. pneumoniae ATCC 13883; Week 1 (12/6/2023)) was 4 µg/mL and the “Bacterial MIC” value (K. pneumoniae ATCC 13883; Week 2 (12/14/2023)) was 8 µg/mL. For the same molecule, the MIC (P. aeruginosa ATCC 27853; [2]) was 8 µg/mL (≈ 1.78 µM), the “Bacterial MIC” value (P. aeruginosa ATCC 27853; Week 1 (12/6/2023)) was 8 µg/mL and the “Bacterial MIC” value (P. aeruginosa ATCC 27853; Week 2 (12/14/2023)) was 8 µg/mL. The MIC (S. aureus ATCC 25923; [2]) was >128 µg/mL, the “Bacterial MIC” value (S. aureus ATCC 25923; Week 1 (12/6/2023)) was >128.000 µg/mL and the “Bacterial MIC” value (S. aureus ATCC 25923; Week 2 (12/14/2023)) was >128.000 µg/mL. The MIC (E. faecium ATCC 49224; [2]) was 32 µg/mL (≈ 7.12 µM), the “Bacterial MIC” value (E. faecium ATCC 49224; Week 1 (12/6/2023)) was 32 µg/mL and the “Bacterial MIC” value (E. faecium ATCC 49224; Week 2 (12/14/2023)) was 64 µg/mL. The MIC (S. aureus ATCC 43300; [2]) was >128 µg/mL, the “Bacterial MIC” value (S. aureus ATCC 43300; Week 1 (12/6/2023)) was >128.000 µg/mL and the “Bacterial MIC” value (S. aureus ATCC 43300; Week 2 (12/14/2023)) was >128.000 µg/mL. For the same molecule, the MIC [1, 2] was 32 µg/mL (≈ 7.12 µM), the “Bacterial MIC” value ([1]; Week 1 (12/6/2023)) was 32 µg/mL and the MIC (E. faecium ATCC 19434; [2]) was 32 µg/mL (≈ 7.12 µM). For the same molecule, the “Bacterial MIC” value (E. faecium ATCC 19434; Week 1 (12/6/2023)) was 32 µg/mL, the “Bacterial MIC” value (E. faecium ATCC 19434; Week 2 (12/14/2023)) was 64 µg/mL and the MIC (A. baumannii ATCC 19606; [2]) was 2 µg/mL (≈ 0.445 µM). The “Bacterial MIC” value (A. baumannii ATCC 19606; Week 1 (12/6/2023)) was 2 µg/mL.
